Laboratory results published in patent EP0488301A1, “New benzopyran compounds with pharmacological activity” (J. URIACH & CIA. S.A., priority 1990, dated 1992).
Like-named read-outs stand apart in the source and are kept apart here.

Tests used:
[1] = system: portal vein isolated from rat; experiment: Test 1: Inhibition of the contraction induced by noradrenaline in portal vein isolated from rat; type: cell-based; conditions: contraction induced by noradrenaline (3µM), compounds incubated for 30 minutes, 50% inhibition versus the basal response, read-out: IC₅₀
Experimental: Test 1: Inhibition of the contraction induced by noradrenaline in portal vein isolated from rat.
Portal vein was extracted from adult male rats (between 200 and 250 g of body weight), which had been stunned by a blow in the head. Portal vein was installed into an isolated organ bath (Letica) containing a physiological saline solution (Hamilton et al., Br. J. Pharmacol., 1986, 88, 103-111) at 37 °C and a gas bubbler (5% CO₂ and 95% O₂). Contractions were induced by noradrenaline (3µM) and were reverted after thoroughly washing with physiological saline solution. Portal vein contraction was measured with an isometric force transducer and with an initial tension of 1 g. After two contractions with noradrenaline, performed in order to measure the tissue's basal response, the tested compounds were incubated for 30 minutes and a new contraction was induced. The concentration that produces a 50% inhibition (IC₅₀) versus the basal response was calculated.

[2] = system: Spontaneously hypertense rats; experiment: Test 2: Lowering of the arterial pressure in conscious hypertense rats; type: in vivo, rat; conditions: dose which produces a decrease of 30 mm Hg of the systolic arterial pressure, 3 doses and 3 animals per dose; for ED (30 mmHg decrease): Rattus norvegicus, po, read-out: ED₃₀; for ED₃₀: p.o.
Experimental: Test 2: Lowering of the arterial pressure in conscious hypertense rats.
Spontaneously hypertense rats (between 200 and 250 g of body weight) of more than 8 weeks of age have been used. Diastolic and systolic arterial pressure of the rat was measured at the caudal artery using a special sphygnomanometer (Letica 5007 and 5007/4) attached to the animal's tail. To ensure rapid and reliable data, animals were placed in a heating plate at 37°C, with the aim to produce a vasodilatation that ensured a better fixation of the rat tail to the transducer chamber. During the experiment, rats are conscious and fixed to a clamp. The tested products were administered orally. Arterial pressure was measured every 30 minutes and 10 minutes before the administration of the tested compound. The ED₃₀ (dose which produces a decrease of 30 mm Hg of the systolic arterial pressure) was calculated for each compound, using 3 doses and 3 animals per dose.

[3] = system: trachea isolated from guinea pig; experiment: Test 3: Direct relaxation of the trachea isolated from guinea pig; type: cell-based; conditions: Cavia porcellus, 50% of the maximum relaxation (relaxation induced by isoproterenol at 1x10⁻⁶ M), cumulative addition, read-out: EC₅₀
Experimental: Test 3 -Direct relaxation of the trachea isolated from guinea pig.
This test was performed according to the experimental model described by Emmerson, J. and Mackay, D. (J. Pharm. Pharmacol.,1979,31, 798). Tracheas were extracted from male guinea pigs of 400 g of body weight, which had been stunned by a blow in the head. Then, tracheas were cut in zigzag and placed into an isolated organ bath (Letica) containing Krebs-Henseleit solution at 37°C and were bubbled with carbogen (95% O₂ and 5% CO₂). The relaxation of the trachea was measured using an isometric force transducer. The basal tension was 0.5 g. The tested compounds were accumulatively added to the bath and the effective concentration which produces a 50% of the maximum relaxation (EC₅₀) was calculated.

SMILES	IC50 ([1]; Rattus norvegicus, 0.5 h) [nM]	EC50 [3] [nM]	IC50 [1] [nM]	ED (30 mmHg decrease) [2] [mg/kg]	ED₃₀ [2] [mg/kg]
CC1(C)Oc2ccc(C#N)cc2[C@@H](NC(=S)N2CCCCC2)[C@@H]1O (relative stereo) [Compound 3, Trans 3,4-dihydro-2,2-dimethyl-3-hydroxy-4-(1-piperidinylthiocarbonylamino)-2H-1-benzopyran-6-carbonitrile]	4200	800	–	0.5	–
CC1(C)Oc2ccc(C#N)cc2[C@@H](NC(=S)N2CCCC2)[C@@H]1O (relative stereo) [Compound 1, Trans 3,4-dihydro-2,2-dimethyl-3-hydroxy-4-(1-pyrrolidinylthiocarbonylamino)-2H-1-benzopyran-6-carbonitrile]	3100	–	–	> 3	–
CC(C)COC(=O)N1CCC[C@H]1C(=O)N[C@@H]1c2cc(C#N)ccc2OC(C)(C)[C@H]1O (single isomer, unassigned) [33(B)]	–	9100	300	–	<0.1
CC(C)(C)OC(=O)N1CCCCC1C(=O)N[C@@H]1c2cc(C#N)ccc2OC(C)(C)[C@H]1O (relative stereo) [Compound 13, Trans 3,4-dihydro-2,2-dimethyl-3-hydroxy-4-(1-tert-butoxycarbonyl-2-piperidinylcarbonylamino)-2H-1-benzopyran-6-carbonitrile]	31000	6000	–	0.18	–
CC1(C)Oc2ccc(C#N)cc2[C@@H](NC(=O)C2CCCCC2)[C@@H]1O (relative stereo) [Compound 45, Trans 4-cyclohexylcarbonylamino-3,4-dihydro-2,2-dimethyl-3-hydroxy-2H-1-benzopyran-6-carbonitrile]	3500	400	–	0.65	–
CN1CCN(C(=S)N[C@@H]2c3cc(C#N)ccc3OC(C)(C)[C@H]2O)CC1 (relative stereo) [Compound 7, Trans 3,4-dihydro-2,2-dimethyl-3-hydroxy-4-(4-methyl-1-piperazinylthiocarbonylamino)-2H-1-benzopyran-6-carbonitrile]	5300	1300	–	0.17	–
CC(C)(C)OC(=O)N1CCC[C@H]1C(=O)N[C@H]1c2cc(C#N)ccc2OC(C)(C)[C@@H]1O [28(A), Trans (3R,4S)-3,4-dihydro-2,2-dimethyl-3-hydroxy-4-[(2S)-1-tert-butoxycarbonyl-2-pyrrolidinylcarbonylamino]-2H-1-benzopyran-6-carbonitrile]	> 10000	–	–	–	–
CC(C)(C)OC(=O)N1CCC[C@H]1C(=O)N[C@@H]1c2cc(C#N)ccc2OC(C)(C)[C@H]1O [28(B), Trans (3S,4R)-3,4-dihydro-2,2-dimethyl-3-hydroxy-4-[(2S)-1-tert-butoxycarbonyl-2-pyrrolidinylcarbonylamino]-2H-1-benzopyran-6-carbonitrile]	2600	4800	–	–	1.0

The next lines start with results.

IC50 ([1]; Rattus norvegicus, 0.5 h) [nM]	EC50 [3] [nM]	IC50 [1] [nM]	SMILES	ED (30 mmHg decrease) [2] [mg/kg]	ED₃₀ [2] [mg/kg]
2400	–	–	CC1(C)Oc2ccc(C#N)cc2[C@H](NC(=O)[C@@H]2CCCN2C(=O)OCc2ccccc2)[C@H]1O [35(A), Trans (3R,4S)-3,4-dihydro-2,2-dimethyl-3-hydroxy-4-[(2S)-1-benzyloxy-carbonyl-2-pyrrolidinylcarbonylamino]-2H-1-benzopyran-6-carbonitrile]	–	–
200	–	–	CC1(C)Oc2ccc(C#N)cc2[C@@H](NC(=O)[C@@H]2CCCN2C(=O)OCc2ccccc2)[C@@H]1O [35(B), Trans (3S,4R)-3,4-dihydro-2,2-dimethyl-3-hydroxy-4-[(2S)-1-benzyloxy-carbonyl-2-pyrrolidinylcarbonylamino]-2H-1-benzopyran-6-carbonitrile]	–	–
2500	2500	–	CC1(C)Oc2ccc(C#N)cc2[C@@H](NC(=O)[C@@H]2CCCN2C(=O)Oc2ccccc2)[C@@H]1O (mixture of isomers) [Compound 34, Trans 3,4-dihydro-2,2-dimethyl-3-hydroxy-4-[(2S)-1-phenoxycarbonyl-2-pyrrolidinylcarbonylamino]-2H-1-benzopyran-6-carbonitrile]	3	–
800	4500	–	CC1(C)Oc2ccc(C#N)cc2[C@@H](NC(=O)C2CCCCN2C(=O)OCc2ccccc2)[C@@H]1O (relative stereo) [Compound 19, Trans 3,4-dihydro-2,2-dimethyl-3-hydroxy-4-(1-benzyloxycarbonyl-2-piperidinylcarbonylamino)-2H-1-benzopyran-6-carbonitrile]	0.7	–
–	900	–	CC1(C)Oc2ccc(C#N)cc2[C@@H](NC(=O)[C@@H]2CCCN2C(=O)OCc2ccccc2)[C@@H]1O (mixture of isomers) [Compound 35, Trans 3,4-dihydro-2,2-dimethyl-3-hydroxy-4-[(2S)-1-benzyloxycarbonyl-2-pyrrolidinylcarbonylamino]-2H-1-benzopyran-6-carbonitrile]	0.05	–
500	–	–	COc1cccc(COC(=O)N2CCC[C@H]2C(=O)N[C@@H]2c3cc(C#N)ccc3OC(C)(C)[C@H]2O)c1 (mixture of isomers) [Compound 58, Trans 3,4-dihydro-2,2-dimethyl-3-hydroxy-4-[(2S)-1-[(3-methoxyphenyl)methyloxycarbonyl]-2-pyrrolidinylcarbonylamino)-2H-1-benzopyran-6-carbonitrile]	< 1	–
200	100	–	CC1(C)Oc2ccc(C#N)cc2[C@@H](NC(=O)[C@@H]2CCCN2C(=O)OCc2cccc(Cl)c2)[C@@H]1O (mixture of isomers) [Compound 60, Trans 3,4-dihydro-2,2-dimethyl-3-hydroxy-4-[(2S)-1-[(3-chlorophenyl)methyloxycarbonyl]-2-pyrrolidinylcarbonylamino)-2H-1-benzopyran-6-carbonitrile]	< 0.5	–
800	1000	–	CC1(C)Oc2ccc(C#N)cc2[C@@H](NC(=O)C2CCCCN2C(=O)Oc2ccccc2)[C@@H]1O (relative stereo) [Compound 18, Trans 3,4-dihydro-2,2-dimethyl-3-hydroxy-4-(1-phenyloxycarbonyl-2-piperidinylcarbonylamino)-2H-1-benzopyran-6-carbonitrile]	0.7	–
–	–	> 10000	CC(C)COC(=O)N1CCC[C@H]1C(=O)N[C@@H]1c2cc(C#N)ccc2OC(C)(C)[C@H]1O (single isomer, unassigned) [33(A)]	–	0.3
